Assay results as given in article PMC10674565 (Pharmaceuticals, 2023).

Key:
[1] = Cytotoxicity (MTT) assay, Caco-2 cells; format: cell-based; conditions: human, 1–500 µM, read-out: viability compared to the control
Procedure: (§1) Caco-2 and HEK93 cells were incubated in a 96-well microplate (10^4 cells per well) with different concentrations (1, 10, 50, 100, and 500 µM) of EMHPS for 24 h. At the end of incubation, 20 μL of 0.5% 3-(4,5-dimethylthiazol-2-yl)-2,5-diphenyltetrazolium bromide (MTT) was added to each well, followed by a 2 h incubation. The MTT solution was then aspirated and 200 μL of […] dimethyl sulfoxide solution (PanEko) was added. Absorption was recorded after 10 min at 530 nm with a Stat Fax 2100 plate reader (Awareness Technology, Palm City, FL, USA). The survival of cells in the presence of EMHPS was calculated according to the equation: (optical density (OD) of test wells − OD of medium)/(OD of control wells − OD of medium) × 100%, where OD is the optical density.

[2] = Cytotoxicity (MTT) assay, HEK293 cells; format: cell-based; conditions: human, 1–500 µM, read-out: viability compared to the control
Procedure: as §1

ABCB1 = assay: Effect on expression of ABCB1 in Caco-2 cells (Western blot); format: cell-based, human; conditions: 1, 10, and 100 µM, 24 h incubation
Procedure: To test the effect of EMHPS on the expression of ABCB1 and SLCO1B1, Caco-2 or HepG2 cells, respectively, were cultured on a 6-well plate. EMHPS was used at concentrations of 1, 10, and 100 µM, and the duration of exposure was 24 h. After the incubation, the cells were removed from the surface of the wells with a trypsin–EDTA solution (0.25% trypsin and 0.2% EDTA, Sigma-Aldrich, St. Louis, MO, USA).
The expression levels of ABCB1 and SLCO1B1 were analyzed via Western blot.
Cells were lysed with NP40 Cell Lysis Buffer Thermo (Thermo Fisher Scientific) with protease inhibitors (Sigma Aldrich, St. Louis, MO, USA) for 30 min at +4 °C with constant stirring at a rate of 10^7 cells per 100 µL of buffer. Protein concentrations were quantified with the Pierce Coomassie Plus Assay Kit (Thermo Fisher, Rockford, IL, USA). […]
The protein content was measured relative to the level of housekeeping protein GAPDH (primary antibodies: GAPDH Loading Control Monoclonal Antibody (GA1R) and […] (Invitrogen); secondary antibodies: secondary rabbit antibodies to primary GAPDH antibodies—Rabbit-anti-Mouse IgG (H + L) Secondary Antibody and HRP (Invitrogen). Chemiluminescence was recorded using ChemiDocXRS+ (Bio-Rad). The intensity of the obtained bands was analyzed densitometrically using ImageLab 6.0.0 software (Bio-Rad).

SLCO1B1 [3] = target: T1, SLCO1B1 (Homo sapiens, UniProt Q9Y6L6); conditions: HEK293-SLCO1B1 vs HEK293, 10 µM
T1 sequence (Q9Y6L6 1-691): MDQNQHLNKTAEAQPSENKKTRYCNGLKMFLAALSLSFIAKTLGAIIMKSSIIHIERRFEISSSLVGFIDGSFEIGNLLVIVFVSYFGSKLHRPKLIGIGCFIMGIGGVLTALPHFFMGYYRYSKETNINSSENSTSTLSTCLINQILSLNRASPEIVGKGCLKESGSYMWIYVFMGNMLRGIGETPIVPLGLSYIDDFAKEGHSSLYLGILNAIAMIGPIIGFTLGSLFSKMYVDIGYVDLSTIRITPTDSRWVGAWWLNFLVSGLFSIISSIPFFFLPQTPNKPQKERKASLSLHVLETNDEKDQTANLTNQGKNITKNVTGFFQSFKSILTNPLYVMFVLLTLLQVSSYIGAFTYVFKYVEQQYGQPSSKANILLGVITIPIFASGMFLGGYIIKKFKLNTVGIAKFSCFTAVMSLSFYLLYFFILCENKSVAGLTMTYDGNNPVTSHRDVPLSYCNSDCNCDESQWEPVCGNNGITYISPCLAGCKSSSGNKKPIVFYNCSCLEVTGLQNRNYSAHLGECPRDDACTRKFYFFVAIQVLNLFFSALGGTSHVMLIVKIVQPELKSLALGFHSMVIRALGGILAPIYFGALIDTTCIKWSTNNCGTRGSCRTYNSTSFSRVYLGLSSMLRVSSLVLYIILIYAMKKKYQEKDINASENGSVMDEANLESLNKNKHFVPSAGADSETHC

CYP3A4 isoenzyme = test system: CYP3A4 isoenzyme; design: method as in PMID 21254598; conditions: cited from earlier work
SLCO1B1 [4] = target: T1, SLCO1B1; assay: Inhibition of SLCO1B1-mediated uptake of atorvastatin in HEK293-SLCO1B1 cells; format: in vitro ADME; design: The SLCO1B1 gene was obtained via synthesis and was cloned into the pEGFP-N1 vector; expressed in transfected cells; host or cells: HEK293
Procedure: As a positive inhibition control, rifampicin at similar concentrations was used. Three independent experiments were performed. […] Proteins were precipitated by adding acetonitrile in a 1:1 ratio to the sample. […] The mobile phase gradient program was as follows: 0-0.6 min-35% A and 65% B, 0.6-5.0 min-5% A and 95% B, 5.0-8.0 min-35% A and 65% B. The flow rate and the column temperature were maintained at 300 μL/min and 35 °C. Aliquots (2 μL) of the extracted samples were injected.

[5] = human, HEK293-SLCO1B1 cells, pH 7.4, probe atorvastatin 1 µM

CCc1nc(C)ccc1O.O=C(O)CCC(=O)O [EMHPS, 2-Ethyl-6-methyl-3-hydroxypyridine succinate]
viability at 24 h [1]: 85 to 105% | viability at 24 h [2]: 85 to 105% | effect on expression of ABCB1 (ABCB1): did not significantly affect | substrate of SLCO1B1 (SLCO1B1 [3]): not a substrate of SLCO1B1 | effect on CYP3A4 isoenzyme (CYP3A4 isoenzyme): inducer | IC50 (SLCO1B1 [4]): 12.1 ± 7.64 µM | inhibition at 100 µM (SLCO1B1 [4]; [5]): 64.7% | inhibition at 500 µM (SLCO1B1 [4]; [5]): 90.6%
